Reference: patent publication US20050209157A1, “Short bioactive peptides and methods for their use” (priority 2001, published 2005)
≈ marks a conversion by molar mass, not a printed value. Like-named read-outs stand apart in the source and are kept apart here. No end group written: not given here.

How the values were obtained:
Staph. aureus 29213 = assay: microbe, parasite or virus in culture; details: for MBC: Staphylococcus aureus, 29213, read-out: MBC, Without peptide; for MBC, With 5 μg/mL peptide: with 5 μg/mL peptide Shiva-10
Excerpt: This experiment determined the peptide MBC in the absence of the antimicrobial agent, or in the presence of the indicated concentration of antimicrobial agent

S. aureus (MRSA) = assay type: cell-based, Staphylococcus aureus; details: in µg/mL
E. coli UB1005 = assay type: cell-based, Escherichia coli
S. typhimurium 14028S = assay type: cell-based, Salmonella typhimurium
[1] = test system: Pseudomonas aeruginosa H187; assay type: cell-based; details: in µg/mL
Candida albicans 105 = assay type: cell-based; details: in µg/mL
[2] = test system: Candida tropicalis ATCC13803; assay: Antimicrobial assays II, NCCLS broth microdilution MIC; assay type: cell-based; details: Table 10
Description: Anti-microbial activity against a broader range of pathogens (including clinical strains) than were tested in Example 2. It should be noted that somewhat different protocols were employed for the assays in Example 2 and Example 3.
MICs were determined for this Example using a slightly modified version of the NCCLS (National Committee for Clinical Laboratory Standards) broth microdilution method as described previously (Steinberg et al., AAC 41: 1738, 1997). Briefly, antimicrobial agents were prepared as 10× concentrates in the most appropriate solvent. For the peptide, 0.01% acetic acid containing 0.2% bovine serum albumin as a carrier protein was used. Inocula were prepared by resuspending colonies from a BAP in medium and adjusting the suspension to match that of a 0.5 McFarland standard. The suspension was diluted into fresh medium (as recommended by NCCLS for the organism) to give 2×10^5 to 7×10^5 CFU/ml for bacteria or 2×10^3 to 7×10^3 CFU/ml for Candida. After dispensing 100 μl aliquots of the microbial suspension into each well of a 96-well polypropylene microtiter plate, 11 μl of test compound was added. […] For facultative anaerobes incubation was performed in 7% carbon dioxide and for strict anaerobes in an oxygen free environment maintained using a standard anaerobic “jar”. All MICs were performed three times and the mean value determined.

[3] = test system: Candida glabrata ATCC15126; assay: as above; assay type: cell-based; details: Table 10; in µg/mL
S. epidermidis C621 = assay type: cell-based, Staphylococcus epidermidis; details: Table 15
P. aeruginosa H374 = assay type: cell-based, Pseudomonas aeruginosa; details: Table 14; in µg/mL

CC1(C)S[C@@H]2[C@H](NC(=O)[C@H](N)c3ccccc3)C(=O)N2[C@H]1C(=O)O [Ampicillin]
MBC (Staph. aureus 29213): 5 µg/mL (≈ 14.3 µM) | MBC, With 5 μg/mL peptide (Staph. aureus 29213): 2.5 µg/mL (≈ 7.15 µM)

NC[C@H]1O[C@H](O[C@H]2[C@H](O)[C@@H](O[C@H]3O[C@H](CO)[C@@H](O)[C@H](N)[C@H]3O)[C@H](N)C[C@@H]2N)[C@H](N)C[C@@H]1O [Tobramycin]
MBC (Staph. aureus 29213): 25 µg/mL (≈ 53.5 µM) | MBC, With 5 μg/mL peptide (Staph. aureus 29213): 10 µg/mL (≈ 21.4 µM)

FAKKALKALKKL-NH2 [P47 (29)]
MIC S. aureus SAP0017 (S. aureus (MRSA); Table 11, strain SAP0017): >128 | MIC E. coli UB1005 (E. coli UB1005; Table 11): 64 µg/mL | MIC S. typhimurium 14028S (S. typhimurium 14028S; Table 11): > 128 µg/mL | MIC P. aeruginosa H187 ([1]; Table 11): 64-128 | MIC C. albicans 105 (Candida albicans 105; Table 10): 32 | MIC C. tropicalis ATCC13803 [2]: 1 µg/mL | MIC C. glabrata ATCC15126 [3]: 64

FAKKLAKKAKLAKKL-NH2 [P77 (53)]
MIC S. aureus SAP0017 (S. aureus (MRSA); Table 11, strain SAP0017): >128 | MIC E. coli UB1005 (E. coli UB1005; Table 11): 64 µg/mL | MIC S. typhimurium 14028S (S. typhimurium 14028S; Table 11): > 128 µg/mL | MIC P. aeruginosa H187 ([1]; Table 11): 64-128 | MIC C. albicans 105 (Candida albicans 105; Table 10): 16 | MIC C. tropicalis ATCC13803 [2]: 1 µg/mL | MIC C. glabrata ATCC15126 [3]: 64

FAKKLAKKLAKAL-NH2 [P74 (50)]
MIC S. aureus SAP0017 (S. aureus (MRSA); Table 11, strain SAP0017): >128 | MIC E. coli UB1005 (E. coli UB1005; Table 11): 16 µg/mL | MIC S. typhimurium 14028S (S. typhimurium 14028S; Table 11): 64 µg/mL | MIC P. aeruginosa H187 ([1]; Table 11): 32-128 | MIC C. albicans 105 (Candida albicans 105; Table 10): 16 | MIC C. tropicalis ATCC13803 [2]: 1 µg/mL | MIC C. glabrata ATCC15126 [3]: 16

FAKKLAKLAKKL-NH2 [P106 (70)]
MIC S. aureus SAP0017 (S. aureus (MRSA); Table 11, strain SAP0017): >128 | MIC E. coli UB1005 (E. coli UB1005; Table 11): 64 µg/mL | MIC S. typhimurium 14028S (S. typhimurium 14028S; Table 11): > 128 µg/mL | MIC P. aeruginosa H187 ([1]; Table 11): >128 | MIC C. albicans 105 (Candida albicans 105; Table 10): 32 | MIC C. tropicalis ATCC13803 [2]: 2 µg/mL | MIC C. glabrata ATCC15126 [3]: 64

FAKKLKKLAKKL-NH2 [P79 (54)]
MIC S. aureus SAP0017 (S. aureus (MRSA); Table 11, strain SAP0017): >128 | MIC E. coli UB1005 (E. coli UB1005; Table 11): 32 µg/mL | MIC S. typhimurium 14028S (S. typhimurium 14028S; Table 11): > 128 µg/mL | MIC P. aeruginosa H187 ([1]; Table 11): >128 | MIC C. albicans 105 (Candida albicans 105; Table 10): 32 | MIC C. tropicalis ATCC13803 [2]: 2 µg/mL | MIC C. glabrata ATCC15126 [3]: 128

FAKLLAKALKKL-NH2 [P103 (67)]
MIC S. aureus SAP0017 (S. aureus (MRSA); Table 11, strain SAP0017): 64 | MIC E. coli UB1005 (E. coli UB1005; Table 11): 32 µg/mL | MIC S. typhimurium 14028S (S. typhimurium 14028S; Table 11): 128 µg/mL | MIC P. aeruginosa H187 ([1]; Table 11): 64 | MIC C. albicans 105 (Candida albicans 105; Table 10): 16 | MIC C. tropicalis ATCC13803 [2]: 2 µg/mL | MIC C. glabrata ATCC15126 [3]: 16

FAKLLAKALKLKL-NH2 [P101 (65)]
MIC S. aureus SAP0017 (S. aureus (MRSA); Table 11, strain SAP0017): 128 | MIC E. coli UB1005 (E. coli UB1005; Table 11): 32 µg/mL | MIC S. typhimurium 14028S (S. typhimurium 14028S; Table 11): 128 µg/mL | MIC P. aeruginosa H187 ([1]; Table 11): 32-128 | MIC C. albicans 105 (Candida albicans 105; Table 10): 32 | MIC C. tropicalis ATCC13803 [2]: 4 µg/mL | MIC C. glabrata ATCC15126 [3]: 32

FAKLLAKFLKKAL-NH2 [P113 (77)]
MIC S. aureus SAP0017 (S. aureus (MRSA); Table 11, strain SAP0017): 32 | MIC E. coli UB1005 (E. coli UB1005; Table 11): 32 µg/mL | MIC S. typhimurium 14028S (S. typhimurium 14028S; Table 11): 44 µg/mL | MIC P. aeruginosa H187 ([1]; Table 11): 32-128 | MIC C. albicans 105 (Candida albicans 105; Table 10): 32 | MIC C. tropicalis ATCC13803 [2]: 4 µg/mL | MIC C. glabrata ATCC15126 [3]: 32

FAKLLAKLAKKL-NH2 [P49 (31)]
MIC S. aureus SAP0017 (S. aureus (MRSA); Table 11, strain SAP0017): 64 | MIC E. coli UB1005 (E. coli UB1005; Table 11): 32 µg/mL | MIC S. typhimurium 14028S (S. typhimurium 14028S; Table 11): 64 µg/mL | MIC P. aeruginosa H187 ([1]; Table 11): 16-64 | MIC C. albicans 105 (Candida albicans 105; Table 10): 16 | MIC C. tropicalis ATCC13803 [2]: 2 µg/mL | MIC C. glabrata ATCC15126 [3]: 16

FALAKKALKKAKKAL-NH2 [P40 (22)]
MIC S. aureus SAP0017 (S. aureus (MRSA); Table 11, strain SAP0017): >128 | MIC E. coli UB1005 (E. coli UB1005; Table 11): 64 µg/mL | MIC S. typhimurium 14028S (S. typhimurium 14028S; Table 11): > 128 µg/mL | MIC P. aeruginosa H187 ([1]; Table 11): >128 | MIC C. albicans 105 (Candida albicans 105; Table 10): 32 | MIC C. tropicalis ATCC13803 [2]: 1 µg/mL | MIC C. glabrata ATCC15126 [3]: 32

FALALKALKK-NH2 [P169 (130)]
MIC S. aureus SAP0017 (S. aureus (MRSA); Table 11, strain SAP0017): >128 | MIC S. aureus SAP0017 (S. aureus (MRSA); Table 15, strain SAP0017): >128 | MIC S. epidermidis C621 (S. epidermidis C621): 32 µg/mL | MIC E. coli UB1005 (E. coli UB1005; Table 11): 32 µg/mL | MIC E. coli UB1005 (E. coli UB1005; Table 14): 64 µg/mL | MIC S. typhimurium 14028S (S. typhimurium 14028S; Table 11): 64 µg/mL | MIC S. typhimurium 14028S (S. typhimurium 14028S; Table 14): 64 µg/mL | MIC P. aeruginosa H374 (P. aeruginosa H374): 128 | MIC P. aeruginosa H187 ([1]; Table 11): 128 | MIC P. aeruginosa H187 ([1]; Table 15): >128 | MIC C. albicans 105 (Candida albicans 105; Table 10): 64 | MIC C. albicans 105 (Candida albicans 105; Table 15): 64 | MIC C. tropicalis ATCC13803 [2]: 8 µg/mL | MIC C. glabrata ATCC15126 [3]: 128

FALALKLAKKAL-NH2 [P167 (128)]
MIC S. aureus SAP0017 (S. aureus (MRSA); Table 11, strain SAP0017): 128 | MIC E. coli UB1005 (E. coli UB1005; Table 11): 32 µg/mL | MIC S. typhimurium 14028S (S. typhimurium 14028S; Table 11): 64 µg/mL | MIC P. aeruginosa H187 ([1]; Table 11): 128 | MIC C. albicans 105 (Candida albicans 105; Table 10): 64 | MIC C. tropicalis ATCC13803 [2]: 8 µg/mL | MIC C. glabrata ATCC15126 [3]: 128

FKLAFKLAKKAFL-NH2 [P122 (84)]
MIC S. aureus SAP0017 (S. aureus (MRSA); Table 11, strain SAP0017): 128 | MIC E. coli UB1005 (E. coli UB1005; Table 11): 64 µg/mL | MIC S. typhimurium 14028S (S. typhimurium 14028S; Table 11): 128 µg/mL | MIC P. aeruginosa H187 ([1]; Table 11): 32-128 | MIC C. albicans 105 (Candida albicans 105; Table 10): 32 | MIC C. tropicalis ATCC13803 [2]: 4 µg/mL | MIC C. glabrata ATCC15126 [3]: 64

VAKLLAKLAKKVL-NH2 [P154 (116)]
MIC S. aureus SAP0017 (S. aureus (MRSA); Table 11, strain SAP0017): >128 | MIC E. coli UB1005 (E. coli UB1005; Table 11): 64 µg/mL | MIC S. typhimurium 14028S (S. typhimurium 14028S; Table 11): > 128 µg/mL | MIC P. aeruginosa H187 ([1]; Table 11): >128 | MIC C. albicans 105 (Candida albicans 105; Table 10): 64 | MIC C. tropicalis ATCC13803 [2]: 8 µg/mL | MIC C. glabrata ATCC15126 [3]: 128
